The values below come from patent publication US8471024B2, “Tetrahydrofuropyridones” (priority 2008, dated 2013).

The target of this experiment is T1, PHD2 (Homo sapiens, UniProt Q9GZT9).
T1 construct: FLAG-tagged full length PHD2expressed in and purified from baculovirus-infected Sf9 cells; FLAG; made in house; host or cells: baculovirus-infected Sf9 cells
Briefly: Assay for HIF-PHD2 Catalytic Activity (time resolved fluorescence, VHL complex detection). The note with it: FLAG-tagged full length PHD2; 0.2 μM 2-oxoglutarate, 0.5 μM HIF-1α peptide; read-out: PHD2 Binding Activity IC50. Type of experiment: biochemical. How it is done: Assay for HIF-PHD2Catalytic Activity To each well of a 96-well plate was added 1 μL of test compound in DMSO and 20 μl of assay buffer (50 mM Tris pH 7.4/0.01% Tween-20/0.1 mg/ml bovine serum albumin/10 μM ferrous sulfate/1mM sodium ascorbate/20 μg/ml catalase) containing 0.15 μg/ml FLAG-tagged full length PHD2expressed in and purified from baculovirus-infected Sf9 cells. After a 30 min preincubation at room temperature, the enzymatic reactions were initiated by the addition of 4 μL of substrates (final concentrations of 0.2 μM 2-oxoglutarate and 0.5 μM HIF-1α peptide biotinyl-DLDLEMLAPYJPMDDDFQL).

Structures are written as SMILES.

T1 sequence (Q9GZT9 whole entry): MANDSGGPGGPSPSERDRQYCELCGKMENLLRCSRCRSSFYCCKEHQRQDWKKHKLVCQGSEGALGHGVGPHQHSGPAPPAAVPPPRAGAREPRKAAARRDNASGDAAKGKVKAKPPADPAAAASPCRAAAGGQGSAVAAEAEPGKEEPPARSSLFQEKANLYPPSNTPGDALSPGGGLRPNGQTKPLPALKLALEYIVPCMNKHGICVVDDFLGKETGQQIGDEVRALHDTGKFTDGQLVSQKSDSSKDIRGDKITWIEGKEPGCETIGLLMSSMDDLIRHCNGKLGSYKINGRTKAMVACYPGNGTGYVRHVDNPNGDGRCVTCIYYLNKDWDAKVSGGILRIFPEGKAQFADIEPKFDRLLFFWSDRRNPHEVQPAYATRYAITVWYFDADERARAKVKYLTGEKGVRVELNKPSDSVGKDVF

Take `O=C(O)CNC(=O)c1c(O)c2c(n(Cc3nc4ccccc4s3)c1=O)COC2` [Example 1, N-{[1-(1,3-benzothiazol-2-ylmethyl)-4-hydroxy-2-oxo-1,2,5,7-tetrahydrofuro[3,4-b]-pyridin-3-yl]carbonyl}glycine]: the IC50 is less than 10 nM.

Regarding `O=C(O)CNC(=O)c1c(O)c2c(n(Cc3cccnn3)c1=O)COC2` [Example 4, N-{[4-hydroxy-2-oxo-1-(pyridazin-3-ylmethyl)-1,2,5,7-tetrahydrofuro[3,4-b]pyridin-3-yl]carbonyl}glycine], the IC50 is less than 10 nM.

For the compound `O=C(O)CNC(=O)c1c(O)c2c(n(Cc3noc(-c4ccccc4)n3)c1=O)COC2` [Example 5, N-({4-hydroxy-2-oxo-1-[(5-phenyl-1,2,4-oxadiazol-3-yl)methyl]-1,2,5,7-tetrahydrofuro[3,4-b]pyridin-3-yl}carbonyl)glycine], the IC50 is less than 10 nM.

`Cc1cnc(Cn2c3c(c(O)c(C(=O)NCC(=O)O)c2=O)COC3)cn1` [Example 7]: the IC50 is less than 10 nM.

`CC(C)Oc1ccc(Cn2c3c(c(O)c(C(=O)NCC(=O)O)c2=O)COC3)cc1` [Example 8, N-{[4-hydroxy-1-(4-isopropoxybenzyl)-2-oxo-1,2,5,7-tetrahydrofuro[3,4-b]pyridin-3-yl]carbonyl}glycine]: the IC50 was less than 10 nM.

Take `O=C(O)CNC(=O)c1c(O)c2c(n(Cc3ccc(Cl)nc3)c1=O)COC2` [Example 9, N-({1-[(6-chloropyridin-3-yl)methyl]-4-hydroxy-2-oxo-1,2,5,7-tetrahydrofuro[3,4-b]pyridin-3-yl}carbonyl)glycine]: the IC50 is less than 10 nM.

For `O=C(O)CNC(=O)c1c(O)c2c(n(Cc3ccc(Br)cc3)c1=O)COC2` [Example 10, N-{[1-(4-bromobenzyl)-4-hydroxy-2-oxo-1,2,5,7-tetrahydrofuro[3,4-b]pyridin-3-yl]carbonyl)glycine], the IC50 is less than 10 nM.

`O=C(O)CNC(=O)c1c(O)c2c(n(CC3Cc4ccccc4C3)c1=O)COC2` [Example 11, N-{[1-(2,3-dihydro-1H-inden-2-ylmethyl)-4-hydroxy-2-oxo-1,2,5,7-tetrahydrofuro[3,4-b]pyridin-3-yl]carbonyl}glycine]: the IC50 was less than 10 nM.

As for `O=C(O)CNC(=O)c1c(O)c2c(n(Cc3cnc(Cl)cn3)c1=O)COC2` [Example 12, N-({1-[(5-chloropyrazin-2-yl)methyl]-4-hydroxy-2-oxo-1,2,5,7-tetrahydrofuro[3,4-b]pyridin-3-yl}carbonyl)glycine], the IC50 was less than 10 nM.

With `CC1OCc2c1c(O)c(C(=O)NCC(=O)O)c(=O)n2Cc1ccc(C(F)(F)F)cc1` (stereo not drawn) [Example 13, N-({4-hydroxy-5-methyl-2-oxo-1-[4-(trifluoromethyl)benzyl]-1,2,5,7-tetrahydrofuro[3,4-b]pyridin-3-yl}carbonyl)glycine], the IC50 was less than 10 nM.

As for `CC1OCc2c1c(O)c(C(=O)NCC(=O)O)c(=O)n2Cc1ccc(C(F)(F)F)nc1` (stereo not drawn) [Example 14, N-[(4-hydroxy-5-methyl-2-oxo-1-{[6-(trifluoromethyl)pyridine-3-yl]methyl}-1,2,5,7-tetrahydrofuro[3,4-b]pyridin-3-yl}carbonyl)glycine], the IC50 was less than 10 nM.

On to `O=C(O)CNC(=O)c1c(O)c2c(n(Cc3ccc(Br)cc3F)c1=O)COC2` [Example 15, N-{[1-(4-bromo-2-fluorobenzyl)-4-hydroxy-2-oxo-1,2,5,7-tetrahydrofuro[3,4-b]pyridin-3-yl]carbonyl}glycine], for which the IC50 was less than 10 nM.

Turning to `O=C(O)CNC(=O)c1c(O)c2c(n(Cc3ccc(OC(F)F)cc3)c1=O)COC2` [Example 17, N-{[1-(4-difluoromethoxybenzyl)-4-hydroxy-2-oxo-1,2,5,7-tetrahydrofuro[3,4-b]pyridin-3-yl]carbonyl}glycine], the IC50 was less than 10 nM.

With `O=C(O)CNC(=O)c1c(O)c2c(n(Cc3ccc(OCC(F)(F)F)nc3)c1=O)COC2` [Example 19, N-[(4-hydroxy-2-oxo-1-{[6-(2,2,2-trifluoroethoxy)pyridin-3-yl]methyl}-1,2,5,7-tetrahydrofuro[3,4-b]pyridin-3-yl)carbonyl]glycine], the concentration for half-maximal inhibition (IC50) was less than 10 nM.

On to `Cc1ccccc1-n1ccc(Cn2c3c(c(O)c(C(=O)NCC(=O)O)c2=O)COC3)n1` [Example 20, N-[(4-hydroxy-1-{[1-(2-methylphenyl)-1-H-pyrazol-3-yl]methyl}-2-oxo-1,2,5,7-tetrahydrofuro[3,4-b]pyridin-3-yl)carbonyl]glycine], for which the IC50 is less than 10 nM.

In the case of `Cc1nn(-c2ccccc2)nc1Cn1c2c(c(O)c(C(=O)NCC(=O)O)c1=O)COC2` [Example 21, N-({4-hydroxy-1-[(5-methyl-2-phenyl-2H-1,2,3-triazol-4-yl)methyl]-2-oxo-1,2,5,7-tetrahydrofuro[3,4-b]pyridin-3-yl}carbonyl)glycine], the IC50 was less than 10 nM.

Take `O=C(O)CNC(=O)c1c(O)c2c(n(Cc3ccn(-c4ccc(F)cc4)n3)c1=O)COC2` [Example 22]: the IC50 was less than 10 nM.

In the case of `O=C(O)CNC(=O)c1c(O)c2c(n(Cc3ccc(-c4nccs4)cc3)c1=O)COC2` [Example 23, N-({4-hydroxy-2-oxo-1-[4-(1,3-thiazol-2-yl)benzyl]-1,2,5,7-tetrahydrofuro[3,4-b]pyridin-3-yl}carbonyl)glycine], the IC50 is less than 10 nM.

For the compound `O=C(O)CNC(=O)c1c(O)c2c(n(Cc3ccc(OCC(F)(F)F)cc3)c1=O)COC2` [Example 24, N-({4-hydroxy-2-oxo-1-[4-(2,2,2-trifluoroethoxy)benzyl]-1,2,5,7-tetrahydrofuro[3,4-b]pyridin-3-yl}carbonyl)glycine], the IC50 was less than 10 nM.

Regarding `CC1(C)OCc2c(O)c(C(=O)NCC(=O)O)c(=O)n(Cc3nc4ccccc4s3)c21` [Example 25], the IC50 is 10 to 100 nM.

Regarding `O=C(O)CNC(=O)c1c(O)c2c(n(Cc3nc(-c4ccc(Cl)cc4Cl)cs3)c1=O)COC2` [Example 26, N-[(1-{[4-(2,4-dichlorophenyl)-1,3-thiazol-2-yl]methyl)-4-hydroxy-2-oxo-1,2,5,7-tetrahydrofuro[3,4-b]pyridin-3-yl)carbonyl]glycine], the IC50 is less than 10 nM.

Turning to `O=C(O)CNC(=O)c1c(O)c2c(n(Cc3nc(-c4ccccc4Cl)cs3)c1=O)COC2` [Example 27, N-[(1-{[4-(2-chlorophenyl)-1,3-thiazol-2-yl]methyl)-4-hydroxy-2-oxo-1,2,5,7-tetrahydrofuro[3,4-b]pyridin-3-yl)carbonyl]glycine], the IC50 is less than 10 nM.

As to `O=C(O)CNC(=O)c1c(O)c2c(n(Cc3ccc(-c4ccccc4Cl)cc3)c1=O)COC2` [Example 28], the IC50 is less than 10 nM.

As to `O=C(O)CNC(=O)c1c(O)c2c(n(Cc3ccc(-c4ccccc4Cl)nc3)c1=O)COC2` [Example 29], the IC50 is less than 10 nM.

Regarding `O=C(O)CNC(=O)c1c(O)c2c(n(Cc3ccc(-c4ccc(Cl)cc4)cc3)c1=O)COC2` [Example 30], the IC50 was less than 10 nM.

As for `O=C(O)CNC(=O)c1c(O)c2c(n(Cc3ccc(-c4ccc(F)cc4)cc3)c1=O)COC2` [Example 31], the half-maximal inhibitory concentration (IC50) was less than 10 nM.

On to `O=C(O)CNC(=O)c1c(O)c2c(n(Cc3ccc(-c4ccccc4-n4cccn4)cc3)c1=O)COC2` [Example 32, N-[(4-hydroxy-2-oxo-1-{[2′-(1H-pyrazol-yl)biphenyl-4-yl]methyl}-1,2,5,7-tetrahydrofuro[3,4-b]pyridin-3-yl}carbonyl)glycine], for which the IC50 is less than 10 nM.
